From patent US20040156869A1, “2-substituted quinazolin-4-ylamine analogues” (Neurogen Corporation, priority 2002, published 2004)

target: human capsaicin receptor (VR1) (Homo sapiens, UniProt Q8NER1); test: Capsaicin receptor binding assay ([3H]RTX competition, VR1-transfected HEK293 membranes)
Sequence (Q8NER1 whole entry): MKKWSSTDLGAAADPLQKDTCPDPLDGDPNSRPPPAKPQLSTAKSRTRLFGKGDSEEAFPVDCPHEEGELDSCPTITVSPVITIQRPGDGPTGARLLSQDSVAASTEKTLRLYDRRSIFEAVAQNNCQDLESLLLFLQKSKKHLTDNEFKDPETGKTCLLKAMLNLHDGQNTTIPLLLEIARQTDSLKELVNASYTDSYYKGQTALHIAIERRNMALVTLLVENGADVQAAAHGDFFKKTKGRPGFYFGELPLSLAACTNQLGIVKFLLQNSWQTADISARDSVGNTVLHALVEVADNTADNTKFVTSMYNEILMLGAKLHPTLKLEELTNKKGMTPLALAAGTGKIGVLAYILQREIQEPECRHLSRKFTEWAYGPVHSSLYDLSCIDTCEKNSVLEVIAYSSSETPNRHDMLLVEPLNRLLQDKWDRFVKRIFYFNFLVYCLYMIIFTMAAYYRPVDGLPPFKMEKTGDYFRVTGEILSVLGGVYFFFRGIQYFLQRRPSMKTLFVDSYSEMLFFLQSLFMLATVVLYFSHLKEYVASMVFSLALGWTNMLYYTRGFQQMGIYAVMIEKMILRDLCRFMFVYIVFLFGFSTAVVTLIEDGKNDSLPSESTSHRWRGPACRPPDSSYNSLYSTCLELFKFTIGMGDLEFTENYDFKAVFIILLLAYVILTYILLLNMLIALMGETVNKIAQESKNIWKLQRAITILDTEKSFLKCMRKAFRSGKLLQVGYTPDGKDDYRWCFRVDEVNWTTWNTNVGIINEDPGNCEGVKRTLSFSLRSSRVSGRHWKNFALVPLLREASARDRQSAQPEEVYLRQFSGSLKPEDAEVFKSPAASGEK

Ki, < 1000 nM:
COCc1nc(Nc2ccc(S(=O)(=O)C(F)(F)F)cc2)c2ccc(-c3ncccc3C(F)(F)F)cc2n1 [Compound 35, [2-Methoxymethyl-7-(3-trifluoromethyl-pyridin-2-yl)-quinazolin-4-yl]-(4-trifluoromethanesulfonyl-phenyl)-amine]
Cc1cccnc1-c1ccc2c(Nc3ccc(C(F)(F)F)cc3)nc(COC(C)C)nc2c1 [Compound 91, [2-Isopropoxymethyl-7-(3-methyl-pyridin-2-yl)-quinazolin-4-yl]-(4-trifluoromethyl-phenyl)-amine]
FC(F)(F)c1ccc(Nc2nc(-c3cccnc3)nc3cc(-c4ncccc4C(F)(F)F)ccc23)cc1 [Compound 508, [2-Pyridin-3-yl-7-(3-trifluoromethyl-pyridin-2-yl)-quinazolin-4-yl]-(4-trifluoromethyl-phenyl)-amine]
CCOCc1nc(Nc2ccc(S(=O)(=O)N3CCOCC3)cc2)c2ccc(-c3ncccc3C(F)(F)F)cc2n1 [Compound 127, [2-Ethoxymethyl-7-(3-trifluoromethyl-pyridin-2-yl)-quinazolin-4-yl]-[4-(morpholine-4-sulfonyl)-phenyl]-amine]
COCCN(CCOC)Cc1nc(Nc2ccc(C(F)(F)F)cc2)c2ccc(-c3ncccc3C)nc2n1 [Compound 743, [2-{[Bis-(2-methoxy-ethyl)-amino]-methyl}-7-(3-methyl-pyridin-2-yl)-pyrido[2,3-d]pyrimidin-4-yl]-(4-trifluoromethyl-phenyl)-amine]
CC(C)COCc1nc(Nc2ccc(C(C)(C)C#N)cc2)c2ccc(-c3ncccc3C(F)(F)F)nc2n1 [Compound 167, 2-{4-[2-Isobutoxymethyl-7-(3-trifluoromethyl-pyridin-2-yl)-pyrido[2,3-d]pyrimidin-4-ylamino]-phenyl}-2-methyl-propionitrile]
COCc1nc(Nc2ccc(C3(C#N)CCC3)cc2)c2ccc(-c3ncccc3C)nc2n1 [Compound 149, 1-{4-[2-Methoxymethyl-7-(3-methyl-pyridin-2-yl)-pyrido[2,3-d]pyrimidin-4-ylamino]-phenyl}-cyclobutanecarbonitrile]
CC(C)COCc1nc(Nc2ccc(F)cc2)c2ccc(-c3ncccc3C(F)(F)F)nc2n1 [Compound 248, (4-Fluoro-phenyl)-[2-isobutoxymethyl-7-(3-trifluoromethyl-pyridin-2-yl)-pyrido[2,3-d]pyrimidin-4-yl]-amine]
CCCCCCN(CCCCCC)Cc1nc(Nc2ccc(C(F)(F)F)cc2)c2ccc(-c3ncccc3C(F)(F)F)cc2n1 [Compound 346, [2-Dihexylaminomethyl-7-(3-trifluoromethyl-pyridin-2-yl)-quinazolin-4-yl]-(4-trifluoromethyl-phenyl)-amine]
CC1(C)CCCN(Cc2nc(Nc3ccc(C(F)(F)F)cc3)c3ccc(-c4ncccc4C(F)(F)F)cc3n2)C1 [Compound 549, [2-(3,3-Dimethyl-piperidin-1-ylmethyl)-7-(3-trifluoromethyl-pyridin-2-yl)-quinazolin-4-yl]-(4-trifluoromethyl-phenyl)-amine]
CC1CN(Cc2nc(Nc3ccc(S(=O)(=O)C(F)(F)F)cc3)c3ccc(-c4ncccc4C(F)(F)F)cc3n2)CC(C)O1 (stereo not shown) [Compound 581, [2-(2,6-Dimethyl-morpholin-4-ylmethyl)-7-(3-trifluoromethyl-pyridin-2-yl)-quinazolin-4-yl]-(4-trifluoromethanesulfonyl-phenyl)-amine]
CC(C)COCc1nc(Nc2ccc(S(=O)(=O)C(F)(F)F)cc2)c2ccc(-c3ncccc3C(F)(F)F)nc2n1 [Compound 168, [2-Isobutoxymethyl-7-(3-trifluoromethyl-pyridin-2-yl)-pyrido[2,3-d]pyrimidin-4-yl]-(4-trifluoromethanesulfonyl-phenyl)-amine]
CCOC(=O)c1nc(Nc2ccc(C(F)(F)F)cc2)c2ccc(-c3ncccc3C(F)(F)F)nc2n1 [Compound 173, 4-(4-Trifluoromethyl-phenylamino)-7-(3-trifluoromethyl-pyridin-2-yl)-pyrido[2,3-d]pyrimidine-2-carboxylic acid ethyl ester]
